Data taken from patent publication US20100143346A1, “Treatment of Macular Degeneration” (priority 2006, published 2010).

Key:
[1] = test system: TL strain of wild type fish; test: 24 hour MTC assay in the TL strain of wild type fish; type: in vivo, Zebrafish (Danio rerio); conditions: 24-48 h.p.f.
Description: Assays using Tg 043/050 uas:GFP+/−enhancer:gal4+/−×TL (“panretinal” enhancer) fish, incubated with various compounds (see Table below) from 24 h.p.f. to 5 d.p.f. (unless otherwise stated), then scoring the extent of the gut vessel plexus by microscopy. A score of 3 represents a good, fully formed gut vessel plexus, with 20 or more branched vessels; 2 represents as slightly less well formed plexus with 10-19 vessels; 1 represents a poorly formed plexus with 1-9 vessels; 0 represents a complete absence of visible gut vessels. Each of the compounds was tested in a 24 hour MTC assay in the TL strain of wild type fish (24-48 h.p.f.). The MTC from this assay was used as the highest concentration for assays in the transgenic fish, with half-log intervals.

gut vessel plexus = test: Zebrafish angiogenesis assay: scoring of the gut vessel plexus in transgenic GFP fish; type: in vivo, Zebrafish (Danio rerio); parameters: Inhibition of gut vessel formation: scale not given here; conditions: for Inhibition of gut vessel formation: transgenic GFP fish incubated 24 h.p.f. to 5 d.p.f., gut vessel plexus scored by microscopy; for concentrations showing concentration-dependent inhibition of vessels: gut vessels
Excerpt: Zebrafish (Danio rerio) are ideal organisms for the investigation of blood vessel growth because they are transparent in the embryonic and larval stages of development so that blood vessels marked with a fluorescent marker can clearly be seen in vivo in the live animal. Zebrafish blood vessel development is well characterised and vessels can be visualised by microangiography or by expressing green fluorescent protein in blood vessels (Isogai et al. (2001) Dev Biol 230(2): 278-301; Covassin et al. (2006) Proc Natl Acad Sci USA 103(17): 6554-9). Zebrafish are also ideal vertebrate organisms in which to screen for active small molecules because the larvae can be treated with compound simply by immersion of the fish in compound solution in wells of a standard multi-well plate (12, 24 or 96-wells).
Expression of the zebrafish PR can be detected as early as 48 hours post fertilisation and an assay was therefore developed to investigate the effects of compounds on blood vessel formation in zebrafish after this time. Previous studies on inhibition of blood vessel growth have focussed on formation of intersegmental vessels (Serbedzija et al. (1999) Angiogenesis 3(4): 353-9; Parng at al. (2002) Assay Drug Dev Technol 1(1 Pt 1): 41-8) but these particular vessels are specified and begin to form prior to the time when the PR is expressed in the zebrafish embryo. Accordingly, later-developing vessels around the gut, the vascular plexus of the mid gut which branches from the subintestinal vein and supraintestinal artery, were monitored.
A similar method was developed for screening of compounds using a line of fish that express GFP under control of an enhancer that drives expression in blood vessels, spinal cord and eyes. The fish are a cross between the et19.1 enhancer:Gal4 line (Scott et al. (2007) Nat Methods 4(4): 323-6) and a UAS:GFP line made in-house in a TL zebrafish background. Transgenic zebrafish embryos or larvae expressing GFP in the blood vessel walls were treated with test compounds by immersion in aqueous medium containing the compound at the required concentration, for a period of one or more days. At the end of the incubation period the fish were immobilised on their sides and the organisation and structure of the vasculature was visualised by fluorescent microscopy, which is possible because of the transparency of zebrafish larvae. The vessels can be identified by comparison with the online Interactive Atlas of Zebrafish Vascular Anatomy (Isogai et al. (2001) Dev Biol 230(2): 278-301).
Vessels such as the dorsal aorta, posterior cardinal vein, caudal artery, caudal vein, intersegmental vessels, dorsal longitudinal anastomotic vessels and the gut vessel plexus were assessed in each fish and compared to the control group. […] A subjective score was given to the fore/mid gut vessel plexus (by assessment of the number of visible vessels and extent of spread of the plexus), ranging from “3” for a normal extensively vascularised gut, to “0” for a complete absence of any branching of vessels around the gut. The intestinal vessel plexus forms between 3 and 5 days post fertilisation (d.p.f.) and so these assays were usually scored at 5 d.p.f. The vessels could also be quantified by digital photography and quantification of fluorescence levels or number of vessels in the region of interest.
Assays using Tg 043/050 uas:GFP+/−enhancer:gal4+/−×TL (“panretinal” enhancer) fish, incubated with various compounds (see Table below) from 24 h.p.f. to 5 d.p.f. (unless otherwise stated), then scoring the extent of the gut vessel plexus by microscopy. A score of 3 represents a good, fully formed gut vessel plexus, with 20 or more branched vessels; 2 represents as slightly less well formed plexus with 10-19 vessels; 1 represents a poorly formed plexus with 1-9 vessels; 0 represents a complete absence of visible gut vessels. Each of the compounds was tested in a 24 hour MTC assay in the TL strain of wild type fish (24-48 h.p.f.). […]

[2] = cited from earlier work

CC1(C)OC(=O)Nc2ccc(-c3cc(F)cc(Cl)c3)cc21 [Wyeth 4g]
MTC [1]: 3 µM | Inhibition of gut vessel formation (gut vessel plexus): ++

CC#CC1(O)CCC2C3CCC4=CC(=O)CCC4=C3C(c3ccc(N)cc3)CC21C (centres unmarked) [RU42848]
MTC [1]: 100 µM | Inhibition of gut vessel formation (gut vessel plexus): +

CC#CC1(O)CCC2C3CCC4=CC(=O)CCC4=C3C(c3ccc(NC)cc3)CC21C (centres unmarked) [RU42633]
MTC [1]: 30 µM | concentration of best inhibition of gut vessels (gut vessel plexus; concentration response curves, 1-5 dpf): 30 µM | Inhibition of gut vessel formation (gut vessel plexus): +++

CC1=CC(C)(C)Nc2ccc(-c3cccc(C#N)c3)cc21 [LG120753]
MTC [1]: 3 µM | concentrations showing concentration-dependent inhibition of vessels (gut vessel plexus): 0.3 to 3 µM | Inhibition of gut vessel formation (gut vessel plexus): +

Cc1cc(C)c(/C=C2\C(=O)Nc3ccccc32)[nH]1 [SU5416]
inhibition of gut vessel formation (in words) (gut vessel plexus): vessel formation was inhibited

CC1=CC(C)(C)Nc2ccc(-c3csc(C#N)c3)cc21 [LG121046]
MTC [1]: 3 to 10 µM | Inhibition of gut vessel formation (gut vessel plexus): ++

CC1(C)OC(=O)Nc2ccc(-c3ccc(F)c(C#N)c3)cc21 [Wyeth 6]
MTC [1]: 100 µM | Inhibition of gut vessel formation (gut vessel plexus): +

COC[C@]1(OC)CC[C@H]2[C@@H]3CCC4=CC(=O)CCC4=C3[C@@H](c3ccc(/C=N/O)cc3)C[C@@]21C [Asoprisnil]
MTC [1]: 10 µM | Inhibition of gut vessel formation (gut vessel plexus): +

CN(C)c1ccc(C2CC3(C)C(CCC3(O)C#CCO)C3CCC4=CC(=O)CCC4=C23)cc1 (centres unmarked) [RU42698]
MTC [1]: 100 µM | concentrations showing concentration-dependent inhibition of vessels (gut vessel plexus): 30 to 100 µM | Inhibition of gut vessel formation (gut vessel plexus): ++

CC#C[C@]1(O)CC[C@H]2[C@@H]3CCC4=CC(=O)CCC4=C3[C@@H](c3ccc(N(C)C)cc3)C[C@@]21C [RU486, 17beta-hydroxy-11-beta-(4-dimethylaminophenyl)-17alpha-(prop-1-ynyl)-estra-4,9-dien-3-one]
plasma half life ([2]; after oral dosing): 20 to 30 h | time to peak plasma levels ([2]; after oral dosing): 1 to 2 h | oral bioavailability ([2]; oral): 40-70% | MTC [1]: 10 to 30 µM | inhibition of gut vessel formation (in words) (gut vessel plexus): dose-dependent | rescue of vessel inhibition by progesterone (gut vessel plexus; 10 μM of each (RU486 and progesterone)): rescued by progesterone | Inhibition of gut vessel formation (gut vessel plexus): +++

CC1(C)OC(=O)Nc2ccc(-c3cc(F)cc(C#N)c3)cc21 [Wyeth 4h]
MTC [1]: 30 µM | concentration of maximal inhibition of gut vessels (gut vessel plexus; data not shown): 30 µM | Inhibition of gut vessel formation (gut vessel plexus): ++

CC1(C)OC(=O)Nc2ccc(-c3ccc(F)c(Cl)c3)cc21 [Wyeth 4j]
MTC [1]: 1 to 3 µM | Inhibition of gut vessel formation (gut vessel plexus): +
